Assays:
human TYRO3 = target: T1, human TYRO3 (Homo sapiens, UniProt Q06418); assay: HTRF KinEASE-TK biochemical potency assay, TYRO3; conditions: 1 nM TYRO3, 700 μM ATP, 800 nM TK Substrate-biotin
T1 construct: purchased Invitrogen
T1 sequence (Q06418 41-890): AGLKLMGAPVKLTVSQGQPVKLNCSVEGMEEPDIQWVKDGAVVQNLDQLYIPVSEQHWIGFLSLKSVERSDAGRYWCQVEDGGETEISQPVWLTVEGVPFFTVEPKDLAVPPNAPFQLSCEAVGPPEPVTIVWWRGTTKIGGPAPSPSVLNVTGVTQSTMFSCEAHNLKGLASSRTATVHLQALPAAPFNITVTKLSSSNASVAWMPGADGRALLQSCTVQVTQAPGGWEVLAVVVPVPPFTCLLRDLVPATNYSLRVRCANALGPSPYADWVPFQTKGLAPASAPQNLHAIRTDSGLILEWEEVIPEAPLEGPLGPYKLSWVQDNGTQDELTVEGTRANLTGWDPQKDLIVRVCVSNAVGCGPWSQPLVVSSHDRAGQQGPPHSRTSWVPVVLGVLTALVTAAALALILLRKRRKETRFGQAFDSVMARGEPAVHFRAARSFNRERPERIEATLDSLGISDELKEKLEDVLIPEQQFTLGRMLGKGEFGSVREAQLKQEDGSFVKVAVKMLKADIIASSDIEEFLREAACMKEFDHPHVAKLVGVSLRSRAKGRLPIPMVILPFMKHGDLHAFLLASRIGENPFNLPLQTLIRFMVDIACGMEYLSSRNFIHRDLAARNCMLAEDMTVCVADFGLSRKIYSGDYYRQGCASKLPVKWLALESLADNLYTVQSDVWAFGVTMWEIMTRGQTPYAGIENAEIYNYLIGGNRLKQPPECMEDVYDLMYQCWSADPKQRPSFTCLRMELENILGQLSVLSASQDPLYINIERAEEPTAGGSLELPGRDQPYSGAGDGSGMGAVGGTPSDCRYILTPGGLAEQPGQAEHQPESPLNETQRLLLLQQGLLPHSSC
How it was run: (§1)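 Recombinant human kinase preincubated 1 h at RT with compound, then reacted 2 h at RT with 800 nM biotin-TK substrate and 700 μM ATP (final; 5 nM AXL, 1 nM TYRO3 or MER) in HEPES pH 7.4, MgCl2, BSA, DTT, 1% DMSO. HTRF 665/620 ratio read; percent activity versus DMSO and pre-quenched controls.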

human MER = target: T2, human MER (Homo sapiens, UniProt Q12866); assay: HTRF KinEASE-TK biochemical potency assay, MER; conditions: 1 nM MER, 700 μM ATP, 800 nM TK Substrate-biotin
T2 construct: purchased Invitrogen
T2 sequence (Q12866 21-999): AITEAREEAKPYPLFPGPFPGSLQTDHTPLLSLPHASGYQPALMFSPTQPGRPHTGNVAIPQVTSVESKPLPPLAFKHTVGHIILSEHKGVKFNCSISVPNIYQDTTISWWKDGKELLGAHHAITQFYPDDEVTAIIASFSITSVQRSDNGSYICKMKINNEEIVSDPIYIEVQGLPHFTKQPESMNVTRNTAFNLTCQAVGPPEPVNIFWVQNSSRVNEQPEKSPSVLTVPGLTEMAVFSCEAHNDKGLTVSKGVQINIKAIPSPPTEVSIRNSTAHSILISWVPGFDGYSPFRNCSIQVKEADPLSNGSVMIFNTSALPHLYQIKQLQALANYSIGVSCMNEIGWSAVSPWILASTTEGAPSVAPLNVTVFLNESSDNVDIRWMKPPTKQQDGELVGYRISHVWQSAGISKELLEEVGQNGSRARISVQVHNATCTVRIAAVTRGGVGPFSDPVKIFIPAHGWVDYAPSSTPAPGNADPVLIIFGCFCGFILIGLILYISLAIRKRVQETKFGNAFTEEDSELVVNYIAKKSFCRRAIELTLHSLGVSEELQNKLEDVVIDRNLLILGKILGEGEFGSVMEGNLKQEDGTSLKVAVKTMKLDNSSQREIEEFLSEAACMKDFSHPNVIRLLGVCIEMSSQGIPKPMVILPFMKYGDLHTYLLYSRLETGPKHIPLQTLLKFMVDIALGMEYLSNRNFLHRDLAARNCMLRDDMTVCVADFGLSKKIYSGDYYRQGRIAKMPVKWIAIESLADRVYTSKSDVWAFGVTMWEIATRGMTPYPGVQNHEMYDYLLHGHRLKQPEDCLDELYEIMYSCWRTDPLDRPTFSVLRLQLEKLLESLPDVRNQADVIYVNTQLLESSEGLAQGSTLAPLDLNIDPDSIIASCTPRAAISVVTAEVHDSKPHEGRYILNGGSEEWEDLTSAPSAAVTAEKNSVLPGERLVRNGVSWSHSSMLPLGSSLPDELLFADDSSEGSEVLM
How it was run: as §1

For `COCCOc1ccc(-c2n[nH]c3ncc(-c4ccc5c(c4)CCC(C)(N4CCC[C@H]4C)CC5)cc23)cc1` (stereo partly drawn) [Example 110, 3-(4-(2-Methoxyethoxy)phenyl)-5-(7-methyl-7-((R)-2-methylpyrrolidin-1-yl)-6,7,8,9-tetrahydro-5H-benzo[7]annulen-2-yl)-1H-pyrazolo[3,4-b]pyridine], the IC50 (human TYRO3) was 100 to 1000 nM and the IC50 (human MER) was 100 to 1000 nM.

`C[C@@H]1CCCN1C1(C)CCc2ccc(-c3cnc4[nH]nc(-c5cnc(C(C)(C)O)c(Cl)c5)c4c3)cc2CC1` (stereo partly drawn) [Example 98, 2-[3-Chloro-5-(5-{7-methyl-7-[(2R)-2-methylpyrrolidin-1-yl]-6,7,8,9-tetrahydro-5H-benzo[7]annulen-2-yl}-1H-pyrazolo[3,4-b]pyridin-3-yl)pyridin-2-yl]propan-2-ol] was tested, and the IC50 (human TYRO3) was 100 to 1000 nM and the IC50 (human MER) was 100 to 1000 nM.

`CC(C)(O)c1ccc(-c2n[nH]c3ncc(-c4ccc5c(c4)CC4CCC(C5)C4N4CCCC4)cc23)cc1Cl` (stereo not drawn) [Example 61, 2-(2-Chloro-4-{5-[13-(pyrrolidin-1-yl)tricyclo[8.2.1.0^3,8]trideca-3,5,7-trien-5-yl]-1H-pyrazolo[3,4-b]pyridin-3-yl}phenyl)propan-2-ol] showed an IC50 (human TYRO3) of over 1000 nM and an IC50 (human MER) of over 1000 nM.

`C[C@@H]1CCCN1C1(C)CCc2ccc(-c3cnc4[nH]nc(-c5ccc(C(=O)N[C@H]6CCOC6)cc5)c4c3)cc2CC1` (stereo partly drawn) [Example 117, 4-(5-{7-Methyl-7-[(2R)-2-methylpyrrolidin-1-yl]-6,7,8,9-tetrahydro-5H-benzo[7]annulen-2-yl}-1H-pyrazolo[3,4-b]pyridin-3-yl)-N-[(3S)-oxolan-3-yl]benzamide] showed an IC50 (human TYRO3) of over 1000 nM and an IC50 (human MER) of over 1000 nM.

Compound `C[C@@H]1CCCN1C1(C)CCc2ccc(-c3cnc4[nH]nc(-c5ccc(S(=O)(=O)N6CCC6)cc5)c4c3)cc2CC1` (stereo partly drawn) [Example 104, (2R)-1-(2-{3-[4-(Azetidine-1-sulfonyl)phenyl]-1H-pyrazolo[3,4-b]pyridin-5-yl}-7-methyl-6,7,8,9-tetrahydro-5H-benzo[7]annulen-7-yl)-2-methylpyrrolidine] has an IC50 (human TYRO3) of under 100 nM and an IC50 (human MER) of 100 to 1000 nM.

`COCCOc1ccc(-c2n[nH]c3ncc(-c4ccc5c(c4)CC[C@@H](N4C6COCC4C6)CC5)cc23)cc1` [Example 123, 6-[(7S)-2-{3-[4-(2-methoxyethoxy)phenyl]-2H-pyrazolo[3,4-b]pyridin-5-yl}-6,7,8,9-tetrahydro-5H-benzo[7]annulen-7-yl]-3-oxa-6-azabicyclo[3.1.1]heptane] was tested, and the IC50 (human TYRO3) was 100 to 1000 nM and the IC50 (human MER) was over 1000 nM.
